The source of these data is patent publication US20170112877A1, “NON-TOXIC AGENT FOR A BROAD-SPECTRUM, BACTERICIDAL OR BACTERIOSTATIC TREATMENT OF ANTIBIOTIC-RESISTANT BACTERIA IN ANIMALS” (LIVELEAF, INC., priority 2015, published 2017).

Data set [1] deals with E. coli. The data set can be described thus: Antibacterial activity against E. coli in Muller-Hinton broth. Format: cell-based. Also noted: key: “+” means positive identification of bacterial growth. Particulars: compound or extract alone, head 1%, 24 hours at 37° C. The source says:
(§1) The testing methods used follow the procedures set-forth by the Clinical and Laboratory Standards Institute (CLSI) and US Pharmacopeia.
(§2) E. coli was chosen as the bacteria to challenge the antibacterial activity of the bound compositions and the free hydrogen peroxide. A range of E. coli concentrations, ranging from 10-10^6 CFU/ml were used for the study. […]
(§3) Table 2 compares the antibacterial activities of each of the model compounds and extracts alone, without the formation of the bound compositions: gallic acid (a model polyphenol building block), tannic acid (a model polyphenol), pomegranate husk extract, and green tea extract were each used to challenge the E. coli alone. […]

A short description of data set [2]: Amount of hydrogen peroxide bound to model compounds or extracts in dry form (peroxide test strip). Format: physicochemical. The text has this: Art-recognized procedures, such as those set-forth at least in U.S. Pat. Nos. 3,860,694; 3,864,454; 4,171,280; and 4,966,762, were used as a guide for this study. […] As discussed, one of skill will appreciate that hydrogen peroxide in a free form, for example, would otherwise quickly degrade. The polyphenols were provided from model compounds or plant extracts. A dry form of the compositions was made between (i) gallic acid (a model polyphenol building block from Sigma-Aldrich) and hydrogen peroxide; (ii) tannic acid (a model polyphenol component from Sigma-Aldrich) and hydrogen peroxide; (iii) pomegranate husk extract and hydrogen peroxide; and, (iv) green tea extract and hydrogen peroxide, using the procedures taught herein, including: • i. adding a solution of 35% hydrogen peroxide slowly into each of the gallic acid powder, tannic powder, pomegranate husk extract powder, or green tea extract powder. […] The hydrogen peroxide concentration measurements were taken using standard methods to determine the amount of hydrogen peroxide that bound to the model compounds or extracts in the dry form.

For data set [3], the system named is E. coli. The data set can be described thus: Stability of hydrogen peroxide in aqueous solution, bound compositions vs free hydrogen peroxide, challenged with E. coli. The conditions noted are these: for hydrogen peroxide concentration: 125 ppm extract + 125 ppm H2O2 (1:1), E. coli 10^6 CFU/ml. Format: physicochemical. The source says: This method tests the stability of the hydrogen peroxide in the combination. The testing methods used follow the standard procedures set-forth by the Clinical and Laboratory Standards Institute (CLSI) and US Pharmacopeia. • i. E. coli was chosen as the bacteria to challenge the stability of the bound compositions and the free hydrogen peroxide. • ii. The hydrogen peroxide concentration was matched to the selected bacteria in order to form a useful curve representing hydrogen peroxide degradation over time for the samples. […] FIG. 2A compares stabilities of free hydrogen peroxide to hydrogen peroxide bound to each of: gallic acid (a model polyphenol building block), tannic acid (a model polyphenol), pomegranate husk extract, green tea extract, and Blessed thistle extract. […] John's wort, Valerian, Apple, Grape, Echinacea purpurea, Grape seed extract, and Blueberry. In both FIGS. 2A and 2B, there are curves that cannot be identified well individually, as they are identical and overlapping. […]

Data set [4] concerns E. coli. The data set can be described thus: Antibacterial activity against E. coli in Muller-Hinton broth. Format: cell-based. Also noted: key: “+” means identifiable bacterial growth.; “−” means no bacterial growth. The conditions noted are these: 100 ppm, 24 hours at 37° C.
From the text: as §1, §2, §3

In data set [5] the test system is E. coli. Described as above. Format: cell-based. Particulars: 100 ppm, 24 hours at 37° C.
From the text: as §1, §2, §3

SMILES strings stand for the structures.

For `O=C(OC[C@H]1O[C@@H](OC(=O)c2cc(O)c(O)c(OC(=O)c3cc(O)c(O)c(O)c3)c2)[C@H](OC(=O)c2cc(O)c(O)c(OC(=O)c3cc(O)c(O)c(O)c3)c2)[C@@H](OC(=O)c2cc(O)c(O)c(OC(=O)c3cc(O)c(O)c(O)c3)c2)[C@@H]1OC(=O)c1cc(O)c(O)c(OC(=O)c2cc(O)c(O)c(O)c2)c1)c1cc(O)c(O)c(OC(=O)c2cc(O)c(O)c(O)c2)c1` [Tannic Acid, tannic acid], the bacterial growth entry in data set [1] (E coli 10 CFU/ml), in data set [1] (E coli 10^2 CFU/ml), in data set [1] (E coli 10^3 CFU/ml), in data set [1] (E coli 10^4 CFU/ml), in data set [1] (E coli 10^5 CFU/ml) and in data set [1] (E coli 10^6 CFU/ml) was “+” in each case. For the same compound, the “hydrogen peroxide bound, by total dry wt” value in data set [2] is given as “about 2.5%”.

For `OO` [H2O2, hydrogen peroxide], the hydrogen peroxide concentration in data set [3] (0 Hours) is on record as 125 ppm; in data set [3] (4 Hours), 15 ppm; in data set [3] (8 Hours) it was 0 ppm; in data set [3] (12 Hours), 0 ppm; in data set [3] (16 Hours), 0 ppm; in data set [3] (20 Hours), 0 ppm. For the same compound, the hydrogen peroxide concentration in data set [3] (24 Hours) is 0 ppm. In addition, the “hydrogen peroxide concentration after degradation” value in data set [3] (within about the first 8 hours) is recorded as around 0.0 ppm. Moreover, the bacterial growth result in data set [4] (E coli 10^2 CFU/ml), in data set [4] (E coli 10^3 CFU/ml), in data set [4] (E coli 10^4 CFU/ml) and in data set [4] (E coli 10^5 CFU/ml) was “+” throughout. The “fate of E. coli, all concentrations” value in data set [5] is “managed to survive”.

As for `O=C(O)c1cc(O)c(O)c(O)c1` [Gallic Acid, gallic acid], the bacterial growth result in data set [1] (E coli 10 CFU/ml), in data set [1] (E coli 10^2 CFU/ml), in data set [1] (E coli 10^3 CFU/ml), in data set [1] (E coli 10^4 CFU/ml), in data set [1] (E coli 10^5 CFU/ml) and in data set [1] (E coli 10^6 CFU/ml) was “+” throughout. In data set [2], the “hydrogen peroxide bound, by total dry wt” value is “about 3.0%”.
